In article PMC10057977, “Use of In Vivo Imaging and Physiologically-Based Kinetic Modelling to Predict Hepatic Transporter Mediated Drug–Drug Interactions in Rats” (Pharmaceutics, 2023):
Like-named read-outs stand apart in the source and are kept apart here.

Key:
[1] = Drug plasma concentrations in humans at therapeutic dosing; type: in vivo; conditions: ketoconazole plasma exposure, human
OATP1B1 = system: OATP1B1; design: method as in earlier work; conditions: in vitro, bracket not explained in the table, ref 30,43-55 and in-house data from Merck & Co., cited from earlier work
OATP1B3 = system: OATP1B3; design: method as in earlier work; conditions: in vitro; ref 30,43-55 and in-house data from Merck & Co.; cited from earlier work
NTCP = system: NTCP; design: method as in earlier work; conditions: in vitro; ref 30,43-55 and in-house data from Merck & Co.; cited from earlier work
MRP2 = conditions: in vitro; bracket not explained in the table; ref 30,43-55 and in-house data from Merck & Co.; cited from earlier work
[2] = cited from earlier work
[3] = design: method as in supplement [28]; conditions: rat; 30 min after 3 mg/kg ketoconazole IV; ref supplement [28]; cited from earlier work
rMrp2 = rMrp2 (Rattus norvegicus, UniProt Q63120); type: in vivo; design: from tissue; host or cells: liver of living male Wistar rats (Charles River Laboratories); conditions: ketoconazole 3 mg/kg iv
Source text: The tracer-kinetic model was developed to enable estimation of rate constants of hepatobiliary efflux from DCE-MRI profiles in individual animals. In this approach, the liver was assumed to consist of two compartments, the extracellular space (e) and the hepatocytes (h). Since water exchanges rapidly between those spaces, the change in relaxation rate was a weighted average (Equation (4)). (4) ΔR1(t)=r1,e·ve·ce(t)+r1,h·vh·ch(t)
The proportionality constant, r1,τ [L⋅mmol^−1⋅s^−1] , is the relaxivity of the contrast agent for the compartment τ (extracellular space, e or hepatocytes, h) at the respective field strength, while vτ [mL/mL tissue] is the volume fraction of the compartment τ . Previously measured ex vivo r1,tau values for gadoxetate were used in this work, as per. The underlying assumptions of the PBPK and tracer-kinetic models, relating to physiological volumes and perfusion, are consistent, despite different parameterizations according to the purpose of each model. For example, Vliv,extr in the PBPK model is defined as an absolute volume (units = L; sum of liver plasma and interstitial volumes), while in the tracer-kinetic model, ve is a volume fraction (dimensionless), defined as Vliv,extr/Vliver , where Vliver is the total liver volume. While some analogy can be drawn between CLactive […], and CLbiliary and kbh, the interpretations are distinct. For example, the operating concentrations of the PBPK parameters CLactive […], and CLbiliary are the unbound concentrations of gadoxetate in plasma and hepatocytes, while the tracer-kinetic model is parameterized with respect to the total concentration of gadoxetate.
Since ce(t) is the input to the hepatocytes, and no backflux from hepatocytes to extracellular space is assumed, Equation (5) can be derived. (5) vh·ch(t)=e^−t/Th∗khe·ce(t) where Th is the mean transit time of gadoxetate in the hepatocytes [min] , and * is convolution. The extracellular space is assumed to be in equilibrium with the blood pool and therefore the concentration ce(t) is proportional to the concentration cp(t) in the plasma of the feeding artery, i.e., ce(t) = (1 − E)·cp(t), where E is the extraction fraction of gadoxetate in the liver. Combining this assumption with Equations (4) and (5), and using (1 − E)·khe = E·Fp, with Fp being the apparent plasma flow into the liver [mL/min/mL tissue volume] , gives Equation (6), the operational equation for gadoxetate DCE-MRI in the liver. (6) ΔR1(t)=(1−E)·ve·r1,p·cp(t)+E·Fp·r1,h ·e^−t/Th ∗cp(t)
The rate constants were derived as K^trans = E·Fp, khe = E·Fp/(1 − E), and kbh = vh/Th, with a literature value for vh. The plasma concentrations cp(t) were not reliably measured in small animals due to the small diameter of the main vessels compared to the resolution of the measurement. […] Therefore, the source term cp(t) was derived from a two-compartment pharmacokinetic model for gadoxetate (see Supplementary Material, Section S5), and a step function as input in the blood compartment. The parameters kbh and khe were fitted to the liver data using a model implementation in Python. For each rat considered in these studies, the rate constants K^trans, khe, and kbh were calculated, in both control and inhibitory phases. The rate constants of the control and inhibitory phases were compared via calculation of simple (unstandardized) effect sizes (i.e., simple effect size = μcontrol − μtreatment, where μ is the mean average of all subjects) at the 95% confidence level. Statistical significance was assessed through a two-sided paired t-test, with p < 0.05 considered significant.

rMrp2, sequence (Q63120 whole entry): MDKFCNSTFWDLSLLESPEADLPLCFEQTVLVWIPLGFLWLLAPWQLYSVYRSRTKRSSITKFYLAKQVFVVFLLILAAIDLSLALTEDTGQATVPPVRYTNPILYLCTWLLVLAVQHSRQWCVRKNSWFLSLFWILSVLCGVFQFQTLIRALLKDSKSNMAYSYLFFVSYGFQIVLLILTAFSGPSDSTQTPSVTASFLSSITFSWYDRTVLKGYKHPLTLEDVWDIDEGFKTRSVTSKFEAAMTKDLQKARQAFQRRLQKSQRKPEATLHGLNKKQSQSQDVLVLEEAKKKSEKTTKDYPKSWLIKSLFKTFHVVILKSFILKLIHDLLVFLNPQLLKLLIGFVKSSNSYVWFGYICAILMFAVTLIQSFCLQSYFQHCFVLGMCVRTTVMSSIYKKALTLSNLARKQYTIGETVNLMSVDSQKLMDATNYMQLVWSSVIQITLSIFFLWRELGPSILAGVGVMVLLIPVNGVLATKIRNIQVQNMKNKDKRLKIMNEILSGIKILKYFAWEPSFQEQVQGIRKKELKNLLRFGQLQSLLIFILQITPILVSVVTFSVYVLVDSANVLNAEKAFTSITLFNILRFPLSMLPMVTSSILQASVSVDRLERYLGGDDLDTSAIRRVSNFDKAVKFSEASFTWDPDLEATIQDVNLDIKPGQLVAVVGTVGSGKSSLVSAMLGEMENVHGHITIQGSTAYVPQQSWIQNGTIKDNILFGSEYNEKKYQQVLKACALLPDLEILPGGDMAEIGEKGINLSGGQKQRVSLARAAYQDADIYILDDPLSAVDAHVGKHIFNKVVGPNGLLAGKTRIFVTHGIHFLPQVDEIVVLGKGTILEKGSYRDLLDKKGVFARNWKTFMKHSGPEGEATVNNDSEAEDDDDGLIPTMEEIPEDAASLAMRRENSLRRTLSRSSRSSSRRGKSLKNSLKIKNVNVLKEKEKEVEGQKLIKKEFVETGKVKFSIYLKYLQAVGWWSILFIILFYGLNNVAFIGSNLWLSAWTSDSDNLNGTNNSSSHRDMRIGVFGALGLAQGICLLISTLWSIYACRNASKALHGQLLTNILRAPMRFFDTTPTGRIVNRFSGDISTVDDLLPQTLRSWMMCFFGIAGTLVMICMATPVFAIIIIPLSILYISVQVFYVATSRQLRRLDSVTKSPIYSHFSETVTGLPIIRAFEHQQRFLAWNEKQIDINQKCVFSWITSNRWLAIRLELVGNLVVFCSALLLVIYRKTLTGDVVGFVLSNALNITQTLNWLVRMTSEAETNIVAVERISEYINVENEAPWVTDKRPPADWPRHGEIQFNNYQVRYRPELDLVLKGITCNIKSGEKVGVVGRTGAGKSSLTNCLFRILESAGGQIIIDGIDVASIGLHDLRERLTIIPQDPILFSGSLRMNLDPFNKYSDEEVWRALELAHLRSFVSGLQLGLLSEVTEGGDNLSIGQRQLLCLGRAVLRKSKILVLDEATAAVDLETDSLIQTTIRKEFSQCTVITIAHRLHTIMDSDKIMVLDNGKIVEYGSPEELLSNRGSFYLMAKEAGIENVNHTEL

unbound Cmax [1]: ~ 0.07 µM
Simple Effect Size (95% CI) kbh (rMrp2; gadoxetate biliary efflux, control − treatment, positive = decrease, site D): 0.02 (−0.02, 0.06) mL/min/mL liver
change in gadoxetate kbh vs control (rMrp2; rat, p = 0.39): no significant changes
Structure (SMILES): CC(=O)N1CCN(c2ccc(OCC3COC(Cn4ccnc4)(c4ccc(Cl)cc4Cl)O3)cc2)CC1 (stereo not shown) [Ketoconazole]
IC50 (OATP1B1): 15.4 µM
Ki (OATP1B1): 50.7 µM
IC50 (OATP1B1; listed as ketoconazole): > 2 µM
IC50 (OATP1B3): 3.9 µM
IC50 (NTCP): 202 µM
IC50 (MRP2): > 20 µM
Cmax ([2]; human plasma, daily dose 200 mg (ketoconazole), read-out: Cmax (µM) [Daily Dose]): 6.6 µM
clinical Ctrough ([2]; human, ref supplement [29]): 0.2 µM
Cmax ([2]; human, ref supplement [29], read-out: clinical Cmax): 7 µM
plasma concentration [3]: 4 µM
